Laboratory results from paper PMC5031918 (Journal of Antimicrobial Chemotherapy, 2016).
Entries after “also recorded” stand apart in the source; their conditions may differ. Read-outs that look alike come from different tables or passages of the source. Blank lines part the entries; values can stand above or below the molecule they belong to.

What was measured:
primary CD4+ T cells = test: Calcein accumulation/efflux in primary CD4+ T cells, flow cytometry; type: cell-based, human
CEM-WT cells = test: [3H]raltegravir cellular accumulation ratio; type: in vitro ADME, human; details: 30 min; for Effect of efflux inhibitor on [3H]raltegravir CAR: MK571 100 μM, XR9051 10 μM or 1 μM (Figure 1a); for Effect of 100 μM cold drug (cis inhibitor) on [3H]raltegravir CAR / CAR of raltegravir: [3H]raltegravir 1 μM
[1] = target: T1, MRP1 (ABCC1), CEM-MRP1 cells (Homo sapiens, UniProt P33527); test: Calcein-AM fluorescence accumulation assay, flow cytometry, CEM-MRP1 cells; type: cell-based; details: antiviral drug at 100 μM, calcein-AM 0.25 μM
CEM-WT (CEM-CCRF) cells = test: Calcein-AM fluorescence accumulation assay, flow cytometry, CEM-WT cells; type: cell-based, human; details: antiviral drug at 100 μM, calcein-AM 0.25 μM
[2] = target: T2, P-gp (ABCB1), CEM-P-gp cells (Homo sapiens, UniProt P08183); test: [3H]raltegravir cellular accumulation ratio; type: in vitro ADME; details: 30 min
[3] = target: T1, MRP1 (ABCC1), CEM-MRP1 cells; test: [3H]ritonavir cellular accumulation ratio; type: in vitro ADME; details: for Increase of the CAR of [3H]ritonavir by 100 μM cold drug: [3H]ritonavir 1 μM, 30 min
[4] = target: T1, MRP1 (ABCC1), CEM-MRP1 cells; test: [3H]raltegravir cellular accumulation ratio; details: 30 min; for Effect of 100 μM cold drug (cis inhibitor) on [3H]raltegravir CAR: [3H]raltegravir 1 μM
[5] = target: T2, P-gp (ABCB1), CEM-P-gp cells; test: [3H]ritonavir cellular accumulation ratio; type: in vitro ADME; details: reversan 10 μM, P = 0.0021
[6] = target: P-gp, primary CD3+CD4+ T cells (Homo sapiens, UniProt P08183); type: in vitro ADME; details: XR9051 1 μM, P = 0.017
P-gp, primary CD3+CD4+ T cells, sequence (P08183 whole entry): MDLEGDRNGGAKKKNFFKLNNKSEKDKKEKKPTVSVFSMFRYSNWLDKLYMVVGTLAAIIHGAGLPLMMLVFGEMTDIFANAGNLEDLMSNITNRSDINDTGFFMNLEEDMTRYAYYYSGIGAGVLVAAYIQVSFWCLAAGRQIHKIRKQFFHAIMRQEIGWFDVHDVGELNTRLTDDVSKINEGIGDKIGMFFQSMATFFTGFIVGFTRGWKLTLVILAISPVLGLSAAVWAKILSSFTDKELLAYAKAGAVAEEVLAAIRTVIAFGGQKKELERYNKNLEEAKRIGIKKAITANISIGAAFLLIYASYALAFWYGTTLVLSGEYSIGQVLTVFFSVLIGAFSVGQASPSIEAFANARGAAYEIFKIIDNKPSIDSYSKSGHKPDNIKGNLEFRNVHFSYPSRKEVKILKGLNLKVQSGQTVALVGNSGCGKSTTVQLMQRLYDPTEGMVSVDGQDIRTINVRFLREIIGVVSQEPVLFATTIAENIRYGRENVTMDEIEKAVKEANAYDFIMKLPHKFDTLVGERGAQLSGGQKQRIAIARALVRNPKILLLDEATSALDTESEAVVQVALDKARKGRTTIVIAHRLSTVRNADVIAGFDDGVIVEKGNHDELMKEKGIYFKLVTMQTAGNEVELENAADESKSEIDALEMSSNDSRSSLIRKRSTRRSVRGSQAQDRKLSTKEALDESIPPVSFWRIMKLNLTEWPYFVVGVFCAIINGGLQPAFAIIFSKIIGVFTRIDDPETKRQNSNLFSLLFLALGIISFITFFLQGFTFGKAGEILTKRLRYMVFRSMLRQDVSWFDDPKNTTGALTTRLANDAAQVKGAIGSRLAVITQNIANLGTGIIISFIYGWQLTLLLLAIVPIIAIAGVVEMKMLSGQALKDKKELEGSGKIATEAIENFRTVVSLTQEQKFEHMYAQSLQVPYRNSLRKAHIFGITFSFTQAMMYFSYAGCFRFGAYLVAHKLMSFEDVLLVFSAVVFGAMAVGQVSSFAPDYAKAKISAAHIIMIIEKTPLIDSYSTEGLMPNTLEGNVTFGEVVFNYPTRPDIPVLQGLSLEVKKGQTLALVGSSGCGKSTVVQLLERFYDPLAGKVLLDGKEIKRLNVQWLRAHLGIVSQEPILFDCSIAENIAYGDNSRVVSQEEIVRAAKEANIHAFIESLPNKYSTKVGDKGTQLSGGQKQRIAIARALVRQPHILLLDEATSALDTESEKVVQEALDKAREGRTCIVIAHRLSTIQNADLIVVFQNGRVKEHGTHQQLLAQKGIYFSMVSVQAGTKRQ

T2 sequence (P08183 whole entry): as above
T1 sequence (P33527 whole entry): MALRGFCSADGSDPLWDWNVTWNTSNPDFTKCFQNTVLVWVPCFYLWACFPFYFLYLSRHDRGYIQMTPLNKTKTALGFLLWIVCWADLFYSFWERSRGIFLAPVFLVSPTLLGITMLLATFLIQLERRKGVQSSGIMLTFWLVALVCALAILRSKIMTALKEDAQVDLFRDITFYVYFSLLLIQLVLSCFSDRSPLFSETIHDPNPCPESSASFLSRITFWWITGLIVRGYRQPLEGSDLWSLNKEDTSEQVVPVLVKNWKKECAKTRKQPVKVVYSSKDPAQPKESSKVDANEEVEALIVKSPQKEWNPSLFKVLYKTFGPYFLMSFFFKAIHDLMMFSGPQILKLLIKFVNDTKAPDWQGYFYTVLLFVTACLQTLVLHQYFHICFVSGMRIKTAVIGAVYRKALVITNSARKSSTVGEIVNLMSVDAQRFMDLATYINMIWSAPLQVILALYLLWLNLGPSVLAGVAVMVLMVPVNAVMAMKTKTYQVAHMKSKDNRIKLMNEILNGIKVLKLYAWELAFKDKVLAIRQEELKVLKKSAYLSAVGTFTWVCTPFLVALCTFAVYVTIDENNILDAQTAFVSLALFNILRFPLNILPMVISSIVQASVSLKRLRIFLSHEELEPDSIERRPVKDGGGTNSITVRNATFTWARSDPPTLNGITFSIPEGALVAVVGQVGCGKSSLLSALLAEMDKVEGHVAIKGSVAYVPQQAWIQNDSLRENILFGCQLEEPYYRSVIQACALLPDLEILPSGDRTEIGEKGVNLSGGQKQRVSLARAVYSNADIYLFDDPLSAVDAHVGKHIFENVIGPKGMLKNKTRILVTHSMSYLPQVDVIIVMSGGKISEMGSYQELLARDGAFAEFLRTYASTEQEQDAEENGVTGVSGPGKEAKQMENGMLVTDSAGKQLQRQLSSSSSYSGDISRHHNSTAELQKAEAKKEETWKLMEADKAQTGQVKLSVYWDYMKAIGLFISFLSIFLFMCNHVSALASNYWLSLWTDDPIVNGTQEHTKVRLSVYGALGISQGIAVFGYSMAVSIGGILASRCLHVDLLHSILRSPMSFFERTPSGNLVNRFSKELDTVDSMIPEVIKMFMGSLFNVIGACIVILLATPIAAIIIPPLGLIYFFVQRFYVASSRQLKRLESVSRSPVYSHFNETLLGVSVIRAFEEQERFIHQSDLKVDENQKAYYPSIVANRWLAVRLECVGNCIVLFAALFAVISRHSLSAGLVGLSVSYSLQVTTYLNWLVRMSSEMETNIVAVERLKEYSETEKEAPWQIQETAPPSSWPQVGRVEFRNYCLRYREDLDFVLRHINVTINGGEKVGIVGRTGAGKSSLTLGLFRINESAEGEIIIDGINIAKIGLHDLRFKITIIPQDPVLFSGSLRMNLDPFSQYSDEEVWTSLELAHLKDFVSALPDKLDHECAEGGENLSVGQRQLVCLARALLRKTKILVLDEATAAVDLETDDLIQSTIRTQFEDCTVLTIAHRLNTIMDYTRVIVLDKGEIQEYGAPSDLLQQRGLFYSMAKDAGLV

Molecule: COc1ccc2c3c([nH]c2c1)[C@H](CC(C)C)N1C(=O)[C@H](CCC(=O)OC(C)(C)C)NC(=O)[C@@H]1C3 [Ko143]
Inhibition of calcein accumulation (primary CD4+ T cells; primary CD4+ T cells, low doses (<1 μM) of Ko143, data not shown): null inhibition

Molecule: CN(C)C(=O)CCSC(SCCC(=O)O)c1cccc(/C=C/c2ccc3ccc(Cl)cc3n2)c1 (stereo not shown) [MK571]
Effect of efflux inhibitor on [3H]raltegravir CAR (CEM-WT cells): did not affect

Molecule: CC(C)CN(C[C@@H](O)[C@H](Cc1ccccc1)NC(=O)O[C@H]1CCOC1)S(=O)(=O)c1ccc(N)cc1 [amprenavir]
Fluorescence ratio (MFI treated/MFI mock cells), calcein [1]: 3.49
Fluorescence ratio (MFI treated/MFI mock cells), calcein (CEM-WT (CEM-CCRF) cells): 0.87

Molecule: COC(=O)N[C@H](C(=O)N[C@@H](Cc1ccccc1)[C@@H](O)CN(Cc1ccc(-c2ccccn2)cc1)NC(=O)[C@@H](NC(=O)OC)C(C)(C)C)C(C)(C)C [atazanavir]
Fluorescence ratio (MFI treated/MFI mock cells), calcein [1]: 2.54
Fluorescence ratio (MFI treated/MFI mock cells), calcein (CEM-WT (CEM-CCRF) cells): 0.63

Molecule: O=C1Nc2ccc(Cl)cc2[C@@](C#CC2CC2)(C(F)(F)F)O1 [efavirenz]
Fluorescence ratio (MFI treated/MFI mock cells), calcein [1]: 4.38
Fluorescence ratio (MFI treated/MFI mock cells), calcein (CEM-WT (CEM-CCRF) cells): 0.94

Molecule: CC(C)(C)NC(=O)[C@@H]1CN(Cc2cccnc2)CCN1C[C@@H](O)C[C@@H](Cc1ccccc1)C(=O)N[C@H]1c2ccccc2C[C@H]1O [indinavir]
Fluorescence ratio (MFI treated/MFI mock cells), calcein [1]: 2.11
Fluorescence ratio (MFI treated/MFI mock cells), calcein (CEM-WT (CEM-CCRF) cells): 1.28

Molecule: Cc1cccc(C)c1OCC(=O)N[C@@H](Cc1ccccc1)[C@@H](O)C[C@H](Cc1ccccc1)NC(=O)[C@H](C(C)C)N1CCCNC1=O [lopinavir]
Fluorescence ratio (MFI treated/MFI mock cells), calcein [1]: 4.20
Fluorescence ratio (MFI treated/MFI mock cells), calcein (CEM-WT (CEM-CCRF) cells): 0.60

Molecule: XR9051
Effect of efflux inhibitor on [3H]raltegravir CAR (CEM-WT cells): did not significantly alter; also recorded: did not affect
Effect of efflux inhibitor on [3H]raltegravir CAR ([2]; CEM-P-gp, XR9051 10 μM or 1 μM (Figure 1a)): significantly increased accumulation
Effect on activity of P-gp^high cells (calcein efflux) (primary CD4+ T cells; non-stimulated CD4+ cells, XR9051 1 μM during the 2 h efflux time): remarkably inhibited
Effect of XR9051 on reduced [3H]raltegravir accumulation ([6]; CD3+CD4+P-gp^high cells): significantly reverse this effect
Effect of XR9051 on reduced [3H]raltegravir accumulation ([6]; total unsorted PBMCs): could also be reversed
Effect of efflux inhibitor on [3H]raltegravir CAR ([4]; CEM-MRP1, MK571 100 μM, XR9051 10 μM): neither MK571 nor XR9051 affected

Second part, led by results:

Fluorescence ratio (MFI treated/MFI mock cells), calcein [1]: 1.23
Molecule: Cc1ccnc2c1NC(=O)c1cccnc1N2C1CC1 [nevirapine]
Fluorescence ratio (MFI treated/MFI mock cells), calcein (CEM-WT (CEM-CCRF) cells): 0.92

CAR of raltegravir (CEM-WT cells; accumulation experiments (Figure 1b), normalized to 100%): 3.04 ± 0.62
CAR of raltegravir (CEM-WT cells; time-course (Figure 1a)): 3.12 ± 0.12
CAR of raltegravir ([2]; CEM-P-gp, [3H]raltegravir 1 μM, co-incubation with XR9051 1 μM, P = 0.0025): 2.46 ± 0.10
Reduction in intracellular raltegravir accumulation with respect to CEM-WT ([2]; untreated CEM-P-gp): 52%
CAR raltegravir P-gp/CAR raltegravir WT ([2]; untreated cells, P < 0.0001): 0.48
Increase of the CAR of [3H]ritonavir by 100 μM cold drug [3]: did not inhibit
Effect of 100 μM cold drug (cis inhibitor) on [3H]raltegravir CAR ([4]; CEM-MRP1): no changes
Reduction in intracellular raltegravir accumulation with respect to control CEM-WT cells ([4]; untreated CEM-MRP1): > 30%
CAR raltegravir MRP1/CAR raltegravir WT ([4]; untreated cells, P < 0.0001): 0.64
Molecule: Cc1nnc(C(=O)NC(C)(C)c2nc(C(=O)NCc3ccc(F)cc3)c(O)c(=O)n2C)o1 [raltegravir]
Effect of 100 μM cold drug (cis inhibitor) on [3H]raltegravir CAR (CEM-WT cells): no changes

Effect of reversan on reduced [3H]ritonavir accumulation ([3]; reversan 10 μM, P = 0.037): reversed in part
Effect of reversan on reduced [3H]ritonavir accumulation [5]: reversed in part
Molecule: O=C(NCCCN1CCOCC1)c1cnn2c(-c3ccccc3)cc(-c3ccccc3)nc12 [reversan]

Increase of the CAR of [3H]ritonavir by 100 μM cold drug [3]: 25%
Effect of 100 μM cold drug (cis inhibitor) on [3H]raltegravir CAR ([4]; CEM-MRP1): did not affect
Molecule: CC(C)c1nc(CN(C)C(=O)N[C@H](C(=O)N[C@@H](Cc2ccccc2)C[C@H](O)[C@H](Cc2ccccc2)NC(=O)OCc2cncs2)C(C)C)cs1 [ritonavir]
Effect of 100 μM cold drug (cis inhibitor) on [3H]raltegravir CAR (CEM-WT cells): did not affect

Fluorescence ratio (MFI treated/MFI mock cells), calcein [1]: 3.94
Effect of 100 μM cold drug (cis inhibitor) on [3H]raltegravir CAR ([4]; CEM-MRP1): did not affect
Molecule: CC(C)(C)NC(=O)[C@@H]1C[C@@H]2CCCC[C@@H]2CN1C[C@@H](O)[C@H](Cc1ccccc1)NC(=O)[C@H](CC(N)=O)NC(=O)c1ccc2ccccc2n1 [saquinavir]
Effect of 100 μM cold drug (cis inhibitor) on [3H]raltegravir CAR (CEM-WT cells): did not affect
Effect of 100 μM cold drug (cis inhibitor) on [3H]raltegravir CAR ([2]; CEM-P-gp, [3H]raltegravir 1 μM): significantly competed with raltegravir efflux
Fluorescence ratio (MFI treated/MFI mock cells), calcein (CEM-WT (CEM-CCRF) cells): 0.77
